# T1: human 14-3-3 ζ (Homo sapiens, UniProt P63104)
# T1 sequence (P63104 1-245): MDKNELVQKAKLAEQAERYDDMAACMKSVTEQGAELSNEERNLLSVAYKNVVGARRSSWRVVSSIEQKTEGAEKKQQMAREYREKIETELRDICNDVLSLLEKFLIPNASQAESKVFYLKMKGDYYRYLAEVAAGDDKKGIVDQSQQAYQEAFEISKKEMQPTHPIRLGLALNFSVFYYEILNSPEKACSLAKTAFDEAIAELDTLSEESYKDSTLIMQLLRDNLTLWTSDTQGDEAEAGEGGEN
# T2: 14-3-3 ζ protein (human), P63104
# T2 chain: T1 sequence (P63104 1-245)
# B1: 14-3-3 ζ protein, P63104 1-245 (natural protein)
# chain: T1 sequence (P63104 1-245)
# Biological target: T1, human 14-3-3 ζ
# Assay: BLI direct binding response of ginsenosides to immobilised 14-3-3 ζ
# Settings: compound concentration 271μM; Fig. 3A and B
row,direct binding response to 14-3-3 ζ (BLI),Molecule
1,barely interacted,CC(C)=CCC[C@](C)(O[C@@H]1O[C@H](CO[C@@H]2O[C@H](CO)[C@@H](O)[C@H](O)[C@H]2O)[C@@H](O)[C@H](O)[C@H]1O)[C@H]1CC[C@]2(C)[C@@H]1[C@H](O)C[C@@H]1[C@@]3(C)CC[C@H](O[C@@H]4O[C@H](CO)[C@@H](O)[C@H](O)[C@H]4O[C@@H]4O[C@H](CO)[C@@H](O)[C@H](O)[C@H]4O)C(C)(C)[C@@H]3CC[C@]12C [Rb1]
2,barely interacted,CC(C)=CCC[C@](C)(O[C@@H]1O[C@H](CO)[C@@H](O)[C@H](O)[C@H]1O)[C@H]1CC[C@]2(C)[C@@H]1[C@H](O)C[C@@H]1[C@@]3(C)CC[C@H](O)C(C)(C)[C@@H]3[C@@H](O)C[C@]12C [F1]
3,significant affinity,CC(C)=CCC[C@](C)(O[C@@H]1O[C@H](CO)[C@@H](O)[C@H](O)[C@H]1O)[C@H]1CC[C@]2(C)[C@@H]1[C@H](O)C[C@@H]1[C@@]3(C)CC[C@H](O)C(C)(C)[C@@H]3[C@@H](O[C@@H]3O[C@H](CO)[C@@H](O)[C@H](O)[C@H]3O)C[C@]12C [Rg1]
4,significant affinity,"CC(C)=CCC[C@](C)(O)[C@H]1CC[C@]2(C)[C@@H]1[C@H](O)C[C@@H]1[C@@]3(C)CC[C@H](O)C(C)(C)[C@@H]3[C@@H](O)C[C@]12C [PPT, 20(S)-protopanaxatriol]"

row,Molecule,direct binding response to 14-3-3 ζ (BLI)
1,"CC(C)=CCC[C@](C)(O[C@@H]1O[C@H](CO)[C@@H](O)[C@H](O)[C@H]1O)[C@H]1CC[C@]2(C)[C@@H]1[C@H](O)C[C@@H]1[C@@]3(C)CC[C@H](O)C(C)(C)[C@@H]3CC[C@]12C [CK, ginsenoside compound K]",significant affinity
2,CC(C)=CCC[C@](C)(O)[C@H]1CC[C@]2(C)[C@@H]1[C@H](O)C[C@@H]1[C@@]3(C)CC[C@H](O)C(C)(C)[C@@H]3[C@@H](O[C@@H]3O[C@H](CO)[C@@H](O)[C@H](O)[C@H]3O)C[C@]12C [Rh1],barely interacted
3,CC(C)=CCC[C@](C)(O)[C@H]1CC[C@]2(C)[C@@H]1[C@H](O)C[C@@H]1[C@@]3(C)CC[C@H](O[C@@H]4O[C@H](CO)[C@@H](O)[C@H](O)[C@H]4O)C(C)(C)[C@@H]3CC[C@]12C [Rh2],significant affinity

# Biological target: T2, 14-3-3 ζ protein (human), P63104
# Assay: crystal structure
# Settings: remark: other sources report otherwise
row,stoichiometry N,Molecule
1,2,B1

# — publication PMC8282492 (Journal of Ginseng Research, 2020)
